Where two headings read alike, the source gives them in different places.
How the values were obtained:
[1] = system: P. falciparum 3D7 parasites; assay: P. falciparum growth inhibition assay, 2-cycle (120 h treatment), delayed-death screen and dose-response; format: cell-based, Plasmodium falciparum; conditions: for activity at 2 µg/mL: Plasmodium falciparum, 3D7, 120 h
[2] = system: T. gondii RH strain (RH-Tub-eYFP) tachyzoites; assay: microbe, parasite or virus in culture; format: cell-based, Toxoplasma gondii; conditions: 72 h, 72 h; for percent parasite growth at 2 µg/mL: Toxoplasma gondii
[3] = system: P. falciparum 3D7 parasites; assay: P. falciparum growth inhibition assay, 1-cycle (72 h treatment), SYBR DNA staining (library screen at 2 μg/mL and dose-response); format: cell-based, Plasmodium falciparum; conditions: for activity at 2 µg/mL: Plasmodium falciparum, 3D7, 72 h
[4] = P. falciparum, 120 h, screen at 2 μg/mL, replicate 1
[5] = P. falciparum, 120 h, screen at 2 μg/mL, replicate 2
[6] = T. gondii, screen at 2 μg/mL, replicate 1
[7] = T. gondii, screen at 2 μg/mL, replicate 2
[8] = P. falciparum, 72 h, screen at 2 μg/mL, replicate 1
[9] = P. falciparum, 72 h, screen at 2 μg/mL, replicate 2
[10] = library screen at 2 μg/mL, 120 h, % growth, replicate 1
[11] = library screen at 2 μg/mL, 120 h, % growth, replicate 2
[12] = library screen at 2 μg/mL, % growth, replicate 1
[13] = library screen at 2 μg/mL, % growth, replicate 2
[14] = library screen at 2 μg/mL, 72 h, % growth, replicate 1
[15] = library screen at 2 μg/mL, 72 h, % growth, replicate 2
[16] = P. falciparum, 120 h, parasite screen 2 μg/mL, % growth, replicate 1, read-out: Pf_120h_%Growth_Rep1
[17] = P. falciparum, 120 h, parasite screen 2 μg/mL, % growth, replicate 2, read-out: Pf_120h_%Growth_Rep2
[18] = T. gondii, parasite screen 2 μg/mL, % growth, replicate 1, read-out: Tg_72h_%Growth_Rep1
[19] = T. gondii, parasite screen 2 μg/mL, % growth, replicate 2, read-out: Tg_72h_%Growth_Rep2
[20] = P. falciparum, 72 h, parasite screen 2 μg/mL, % growth, replicate 1, read-out: Pf_72h_%Growth_Rep1
[21] = P. falciparum, 72 h, parasite screen 2 μg/mL, % growth, replicate 2, read-out: Pf_72h_%Growth_Rep2

C=C1[C@@H](C)[C@H]2[C@H](Cc3ccccc3)NC(=O)[C@]23OC(=O)/C=C/[C@H](O)CCC[C@@H](C)C/C=C/[C@H]3[C@@H]1O [Cytochalasin B]
activity at 2 µg/mL ([1]; P. falciparum, 120 h, screen at 2 μg/mL, replicate 1, read-out: Pf_120h_%Growth_Rep1): -1.09% | activity at 2 µg/mL ([1]; P. falciparum, 120 h, screen at 2 μg/mL, replicate 2, read-out: Pf_120h_%Growth_Rep2): 8.72% | percent parasite growth at 2 µg/mL ([2]; T. gondii, screen at 2 μg/mL, replicate 1, read-out: Tg_72h_%Growth_Rep1): 31.3% | percent parasite growth at 2 µg/mL ([2]; T. gondii, screen at 2 μg/mL, replicate 2, read-out: Tg_72h_%Growth_Rep2): 60.5% | activity at 2 µg/mL ([3]; P. falciparum, 72 h, screen at 2 μg/mL, replicate 1, read-out: Pf_72h_%Growth_Rep1): 8.23% | activity at 2 µg/mL ([3]; P. falciparum, 72 h, screen at 2 μg/mL, replicate 2, read-out: Pf_72h_%Growth_Rep2): 10.3%

Cinnamycin
Pf_120h_%Growth_Rep1 [1, 4]: 137.57% | Pf_120h_%Growth_Rep2 [1, 5]: 92.38% | Tg_72h_%Growth_Rep1 [2, 6]: 85.83% | Tg_72h_%Growth_Rep2 [2, 7]: 93.54% | Pf_72h_%Growth_Rep1 [3, 8]: 85.92% | Pf_72h_%Growth_Rep2 [3, 9]: 85.03%

CC[C@H]1OC(=O)[C@H](C)[C@@H](O[C@H]2C[C@@](C)(OC)[C@@H](O)[C@H](C)O2)[C@H](C)[C@@H](O[C@@H]2O[C@H](C)C[C@H](N(C)C)[C@H]2O)[C@](C)(O)C[C@@H](C)C(=O)[C@H](C)[C@@H](O)[C@]1(C)O [Erythromycin A]
Pf_120h_%Growth_Rep1 [1, 10]: 83.81% | Pf_120h_%Growth_Rep2 [1, 11]: 89.66% | Tg_72h_%Growth_Rep1 [2, 12]: 29.44% | Tg_72h_%Growth_Rep2 [2, 13]: 44.08% | Pf_72h_%Growth_Rep1 [3, 14]: 79.99% | Pf_72h_%Growth_Rep2 [3, 15]: 105.49%

COc1cc(OC)c2c(OC)c3ccoc3nc2c1OC [Trimethoxydictamnine, 5,7,8-]
Pf_120h_%Growth_Rep1 [1, 4]: 91.88% | Pf_120h_%Growth_Rep2 [1, 5]: 81.51% | Tg_72h_%Growth_Rep1 [2, 6]: 134.56% | Tg_72h_%Growth_Rep2 [2, 7]: 84.32% | Pf_72h_%Growth_Rep1 [3, 8]: 85.08% | Pf_72h_%Growth_Rep2 [3, 9]: 101.79%

CON=C1CC2(CC3CC(CC=C(C)CC(C)C=CC=C4COC5C(O)C(C)=CC(C(=O)O3)C45O)O2)OC(C(C)=CC(C)C)C1C (stereo not drawn) [BIA-M1298]
Pf_120h_%Growth_Rep1 ([1]; P. falciparum 3D7, 120 h, parasite screen at 2 μg/mL, % growth, replicate 1): -5.10% | Pf_120h_%Growth_Rep2 ([1]; P. falciparum 3D7, 120 h, parasite screen at 2 μg/mL, % growth, replicate 2): 5.91% | Tg_72h_%Growth_Rep1 ([2]; T. gondii, parasite screen at 2 μg/mL, % growth, replicate 1): 102.84% | Tg_72h_%Growth_Rep2 ([2]; T. gondii, parasite screen at 2 μg/mL, % growth, replicate 2): 95.78% | Pf_72h_%Growth_Rep1 ([3]; P. falciparum 3D7, 72 h, parasite screen at 2 μg/mL, % growth, replicate 1): 17.45% | Pf_72h_%Growth_Rep2 ([3]; P. falciparum 3D7, 72 h, parasite screen at 2 μg/mL, % growth, replicate 2): -0.02%

COC(=O)[C@]12Oc3cc(C)c(-c4c(C)cc5c(c4O)C(=O)C4=C(O)CC[C@H](O)[C@@]4(C(=O)OC)O5)c(O)c3C(=O)C1=C(O)CC[C@@H]2O [Rugulotrosin A]
activity at 2 µg/mL [1, 16]: 69.8% | activity at 2 µg/mL [1, 17]: 107% | percent parasite growth at 2 µg/mL [2, 18]: 118% | percent parasite growth at 2 µg/mL [2, 19]: 86.1% | activity at 2 µg/mL [3, 20]: 69.8% | activity at 2 µg/mL [3, 21]: 106%

CO[C@H]1C[C@H](O[C@H]2[C@H](C)O[C@@H](O[C@@H]3/C(C)=C/C[C@@H]4C[C@@H](C[C@]5(C=C[C@H](C)[C@@H](C6CCCCC6)O5)O4)OC(=O)[C@H]4C=C(C)[C@@H](O)[C@H]5OC/C(=C\C=C\[C@@H]3C)[C@@]45O)C[C@@H]2OC)O[C@@H](C)[C@@H]1O [Doramectin, epi-]
Pf_120h_%Growth_Rep1 [1, 10]: -3.39% | Pf_120h_%Growth_Rep2 [1, 11]: 23.35% | Tg_72h_%Growth_Rep1 [2, 12]: 72.64% | Tg_72h_%Growth_Rep2 [2, 13]: 83.42% | Pf_72h_%Growth_Rep1 [3, 14]: 8.06% | Pf_72h_%Growth_Rep2 [3, 15]: 18.63%

CO[C@H]1C[C@@H]2CC[C@@H](C)[C@@](O)(O2)C(=O)C(=O)N2CCCC[C@H]2C(=O)O[C@H]([C@H](C)C[C@@H]2CC[C@@H](O)[C@H](OC)C2)CC(=O)[C@H](C)/C=C(\C)[C@@H](O)[C@@H](OC)C(=O)[C@H](C)C[C@H](C)/C=C/C=C/C=C/1C [Rapamycin]
activity at 2 µg/mL [1, 16]: 104% | activity at 2 µg/mL [1, 17]: 102% | percent parasite growth at 2 µg/mL [2, 18]: 132% | percent parasite growth at 2 µg/mL [2, 19]: 75.7% | activity at 2 µg/mL [3, 20]: 86.2% | activity at 2 µg/mL [3, 21]: 116%

O=C(N[C@H](CO)[C@H](O)c1ccc([N+](=O)[O-])cc1)C(Br)Br [Bromamphenicol]
Pf_120h_%Growth_Rep1 [1, 4]: 132.78% | Pf_120h_%Growth_Rep2 [1, 5]: 78.55% | Tg_72h_%Growth_Rep1 [2, 6]: 80.35% | Tg_72h_%Growth_Rep2 [2, 7]: 93.07% | Pf_72h_%Growth_Rep1 [3, 8]: 93.46% | Pf_72h_%Growth_Rep2 [3, 9]: 85.21%
